Here are results for seven compounds from US9789100B2, “Compounds as rearranged during transfection (RET) inhibitors” (GlaxoSmithKline Intellectual Property Development Limited, priority 2013, dated 2017).

pIC50: −log10 of the molar value. Where a name gives a salt, the structure may show the parent alone. Read-outs that look alike come from different tables or passages of the source. Some results are limits rather than exact numbers.

For orientation: pIC50 means −log10 of the IC50, conventionally taken in molar units.

The target of assay [1] is Human RET kinase cytoplasmic domain (Homo sapiens (Human), UniProt P07949). Kind of assay: RET kinase enzymatic assay. The class given is biochemical. The note with it: human RET kinase enzymatic assay (Table 2). On the procedure: RET Kinase Enzymatic Assay
Chain of Human RET kinase cytoplasmic domain (P07949 658-1114): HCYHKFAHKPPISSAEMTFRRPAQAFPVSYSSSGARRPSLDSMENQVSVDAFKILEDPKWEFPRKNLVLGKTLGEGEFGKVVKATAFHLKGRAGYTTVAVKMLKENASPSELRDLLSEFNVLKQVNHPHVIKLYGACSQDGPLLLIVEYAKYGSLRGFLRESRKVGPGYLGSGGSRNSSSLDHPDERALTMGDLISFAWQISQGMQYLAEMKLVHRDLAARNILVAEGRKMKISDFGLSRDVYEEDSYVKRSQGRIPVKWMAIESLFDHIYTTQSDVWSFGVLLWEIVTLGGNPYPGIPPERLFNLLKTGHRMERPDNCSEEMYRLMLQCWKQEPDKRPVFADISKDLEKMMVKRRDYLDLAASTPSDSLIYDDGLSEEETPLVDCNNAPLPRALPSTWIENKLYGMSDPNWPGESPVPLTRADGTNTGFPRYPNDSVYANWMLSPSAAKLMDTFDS
GST-RET was purified using glutathione sepharose chromatography. The RET kinase enzymatic assay was performed in a total volume of 10 uL with increasing concentrations of RET kinase inhibitor as a singlet in a 384 well format as follows: RET inhibitor compound plates are prepared by adding 100 nL of RET inhibitor at different concentrations to a 384-well plate. 5 μL/well of a 2× enzyme mix (50 mM HEPES (4-(2-hydroxyethyl)-1-piperazineethanesulfonic acid); 1 mM CHAPS (3[(3-cholamidopropyl)dimethylammonio]-1-propanesulfonate); 0.1 mg/mL BSA (bovine serum albumin); 1 mM DTT (dithiothreitol); 0.2 nM RET kinase) was added to the 384-well plate and incubated for 30 minutes at 23° C.

Another assay has as its system TT cells. Kind of assay: RET kinase cell-based proliferation assay. As to conditions: 192 h, read-out: RET IC50. On the set-up: species or system human. An excerpt: RET Kinase Cell-Based Proliferation Assay
The target of assay [2] is constitutive RET kinase phosphorylation in TT cells (Homo sapiens (Human), UniProt P07949, C634W). Kind of assay: RET kinase cell-based mechanistic assay.
Chain of constitutive RET kinase phosphorylation in TT cells (P07949 29-1114 C634W): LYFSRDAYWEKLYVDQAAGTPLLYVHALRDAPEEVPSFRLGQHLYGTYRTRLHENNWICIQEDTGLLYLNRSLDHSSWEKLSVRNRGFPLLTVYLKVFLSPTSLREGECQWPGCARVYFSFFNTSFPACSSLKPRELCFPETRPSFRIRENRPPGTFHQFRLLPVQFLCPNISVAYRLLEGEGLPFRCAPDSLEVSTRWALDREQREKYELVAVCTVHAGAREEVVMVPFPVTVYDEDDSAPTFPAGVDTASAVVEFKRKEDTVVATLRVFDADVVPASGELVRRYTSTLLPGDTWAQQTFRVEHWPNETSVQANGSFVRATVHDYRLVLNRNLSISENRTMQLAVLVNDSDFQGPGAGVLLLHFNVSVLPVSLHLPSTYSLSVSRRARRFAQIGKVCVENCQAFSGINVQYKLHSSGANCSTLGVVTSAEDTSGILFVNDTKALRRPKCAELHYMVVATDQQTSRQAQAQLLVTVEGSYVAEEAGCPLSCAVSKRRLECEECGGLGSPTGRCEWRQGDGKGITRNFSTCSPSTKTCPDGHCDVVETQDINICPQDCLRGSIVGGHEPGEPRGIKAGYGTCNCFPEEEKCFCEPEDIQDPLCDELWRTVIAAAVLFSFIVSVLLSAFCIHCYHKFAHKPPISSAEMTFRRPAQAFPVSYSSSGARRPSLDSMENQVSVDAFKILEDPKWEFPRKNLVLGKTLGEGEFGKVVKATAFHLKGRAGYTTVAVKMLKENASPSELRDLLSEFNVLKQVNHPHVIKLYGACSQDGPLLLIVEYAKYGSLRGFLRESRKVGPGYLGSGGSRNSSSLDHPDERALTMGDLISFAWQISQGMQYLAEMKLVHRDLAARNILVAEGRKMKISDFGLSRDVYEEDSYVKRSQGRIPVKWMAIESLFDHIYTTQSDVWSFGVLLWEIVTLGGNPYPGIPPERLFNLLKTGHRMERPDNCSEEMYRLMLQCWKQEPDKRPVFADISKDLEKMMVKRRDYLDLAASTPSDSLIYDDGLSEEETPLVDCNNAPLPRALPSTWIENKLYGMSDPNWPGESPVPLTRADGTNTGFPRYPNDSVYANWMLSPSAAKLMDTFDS
Method: RET Kinase Cell-Based Mechanistic Assay
The potency of the compound of the invention was tested for its ability to inhibit constitutive RET kinase phosphorylation in cell-based assay. […] 1.0E5 TT cells/well were plated in a 96-well cell culture plate and allowed to adhere overnight. […] IC50s were fitted using GraphPad Prism to a sigmoidal dose response.
The mark [3] stands for this setting: human RET kinase cell-based proliferation assay, TT cells, eight days (Table 4).

Consider `CCOc1cc(=O)[nH]cc1-c1ccc(CC(=O)Nc2ccc(C(C)(C)C(F)(F)F)nc2)c(F)c1` [Example 37, 2-(4-(4-ethoxy-6-oxo-1,6-dihydropyridin-3-yl)-2-fluorophenyl)-N-(6-(1,1,1-trifluoro-2-methylpropan-2-yl)pyridin-3-yl)acetamide hydrochloride], for which the negative logarithm of the IC50 (pIC50) in assay [1] is above 7.00; in the assay with TT cells (Homo sapiens, TT), 5.00 to 6.30; in assay [2], 6.30 to 7.00.

With `CCOc1cc(-c2ccc(CC(=O)Nc3cc(OCCN4CCOCC4)cc(C(F)(F)F)c3)c(F)c2)c[nH]c1=O` [Example 39, 2-(4-(5-ethoxy-6-oxo-1,6-dihydropyridin-3-yl)-2-fluorophenyl)-N-(3-(2-morpholinoethoxy)-5-(trifluoromethyl)phenyl)acetamide], the pIC50 in assay [1] is above 7.00; in the assay on TT cells (setting [3]), 6.30 to 7.00; in assay [2] it was above 7.00.

As for `CCOc1cc(-c2ccc(CC(=O)Nc3cc(C(C)(C)C(F)(F)F)nn3C)c(F)c2)c[nH]c1=O` [Example 41, 2-(4-(5-ethoxy-6-oxo-1,6-dihydropyridin-3-yl)-2-fluorophenyl)-N-(1-methyl-3-(1,1,1-trifluoro-2-methylpropan-2-yl)-1H-pyrazol-5-yl)acetamide hydrochloride], the negative-log IC50 (pIC50) in assay [1] is above 7.00; with TT cells (Homo sapiens, TT), 6.30 to 7.00; in assay [2], above 7.00.

Regarding `CCOc1cc(-c2ccc(CC(=O)Nc3cc(C(C)(C)C(F)(F)F)n[nH]3)c(F)c2)c[nH]c1=O` [Example 42, 2-(4-(5-ethoxy-6-oxo-1,6-dihydropyridin-3-yl)-2-fluorophenyl)-N-(3-(1,1,1-trifluoro-2-methylpropan-2-yl)-1H-pyrazol-5-yl)acetamide hydrochloride], the negative-log IC50 (pIC50) in assay [1] was above 7.00; with TT cells (Homo sapiens, TT) it was above 7.00; in assay [2] it was above 7.00.

Turning to `CCOc1cc(-c2ccc(CC(=O)Nc3ccc(CC(F)(F)CO)c(C(F)(F)F)c3)c(F)c2)c[nH]c1=O` [Example 43, N-(4-(2,2-difluoro-3-hydroxypropyl)-3-(trifluoromethyl)phenyl)-2-(4-(5-ethoxy-6-oxo-1,6-dihydropyridin-3-yl)-2-fluorophenyl)acetamide], the negative-log IC50 (pIC50) (in assay [1]; in the assay with TT cells (setting [3]); in assay [2]) was above 7.00 each time.

Turning to `CCOc1cc(-c2ccc(CC(=O)Nc3cc(-c4cnn(C)c4)cc(C(F)(F)F)c3)c(F)c2)c[nH]c1=O` [Example 45, 2-(4-(5-ethoxy-6-oxo-1,6-dihydropyridin-3-yl)-2-fluorophenyl)-N-(3-(1-methyl-1H-pyrazol-4-yl)-5-(trifluoromethyl)phenyl)acetamide hydrochloride], the pIC50 in assay [1] was above 7.00; with TT cells (Homo sapiens, TT), 6.30 to 7.00; in assay [2], above 7.00.

`CCOc1cc(-c2ccc(CC(=O)Nc3cc(OCCN(C)C)cc(C(F)(F)F)c3)c(F)c2)c[nH]c1=O` [Example 46, N-(3-(2-(dimethylamino)ethoxy)-5-(trifluoromethyl)phenyl)-2-(4-(5-ethoxy-6-oxo-1,6-dihydropyridin-3-yl)-2-fluorophenyl)acetamide]: the pIC50 (in assay [1]; in the assay with TT cells (setting [3]); in assay [2]) was above 7.00 each time.
